Values quoted from earlier work, collected in patent US11110113B2, “Compositions and methods for treating depression” (Gentelon, Inc., priority 2016, dated 2021).

Assays:
[1] = test system: Major Depressive Disorder; conditions: trial versus placebo
cerebral tissue = conditions: six months, versus placebo; schizophrenia and Huntington's disease
[2] = test system: Major Depressive Disorder; conditions: double-blind studies; intravenous or intramuscular (parenteral)
[3] = oral SAMe

## CC/C=C\C/C=C\C/C=C\C/C=C\C/C=C\C/C=C\CCC(=O)O [DHA, all-cis-4,7,10,13,16,19-docosahexaenoic acid]
[1]
  efficacy in major depressive disorder / mood-disordered population: negative result

## CC/C=C\C/C=C\C/C=C\C/C=C\C/C=C\CCCC(=O)OCC [E-EPA]
Cerebral tissue
  grey and white matter: significant increase
[1]
  efficacy in major depressive disorder / mood-disordered population: advantage over placebo

## C[S+](CC[C@H](N)C(=O)[O-])C[C@H]1O[C@@H](n2cnc3c(N)ncnc32)[C@H](O)[C@@H]1O (stereo partly shown) [SAMe, S-Adenosyl methionine]
[2]
  efficacy in treatment of Major Depressive Disorder: effective
[3]
  half-life: about 100 minutes

## Nc1nc2ncc(CNc3ccc(C(=O)N[C@@H](CCC(=O)O)C(=O)O)cc3)nc2c(=O)[nH]1 [folic acid]
depression; longer term supplementation, patients with unipolar and bipolar depression
  depression symptomatology: statistically significant improvements

## Nc1nc2c(c(=O)[nH]1)N(C=O)C(CNc1ccc(C(=O)N[C@@H](CCC(=O)O)C(=O)O)cc1)CN2 (stereo partly shown) [folinic acid]
depression; patients inadequately responsive to monotherapy with a serotonin reuptake inhibitor
  depression scores: significant reduction
